Experiments:
Assay type in all cases: physicochemical
[1] = Reversed-phase liquid chromatography retention factor (log k) on hexyl-phenyl bonded phase; conditions: C6Ph column; for log k in 80% CH3CN, C6Ph: aqueous 80% acetonitrile at 40° C.
Text: (§1) The inertness and the chemical stability of the synthesized hexyl-phenyl bonded silica gel were studied by looking at the retention factors and peak shapes of pyridine, benzoic acid, 8-hydroxyquinoline, and naphthalene disclosed in T. Hanai, Encyclopedia of Analytical Science (1995), Academic Press, London, p. […] which is hereby incorporated herein by reference. The retention factor, in terms of measured parameters, is “k=(tR−tO)/tO”: where tR is retention time of the measured peak; and to is retention time of non-retained component.
(§2) The retention capacities of alkyl-phenyl bonded silica gels were compared from the retention factors for alkylbenzenes and polycyclic aromatic hydrocarbons (PAH).
(§3) […] The log k values were used for the analysis of hydrophobicity of bonded phases using van der Waals volumes of analytes as the standard.
(§4) The liquid chromatograph was a model HP1090 from Hewlett-Packard (Palo Alto, Calif. USA), and the chemically-bonded silica gel columns, —C18, —C8 and —C5, —C6Ph, —C3Ph, 15 cm×4.6 mm I.D., were from Phenomenex Inc. (Torrance, Calif. USA). Chemicals used were from Aldrich and ChemService. HPLC grade acetonitrile and water were from Fisher Scientific (Tustin, Calif. USA).

[2] = Reversed-phase liquid chromatography retention factor (log k) on octadecyl bonded phase; conditions: C18 column; for log k in 80% CH3CN, C18: aqueous 80% acetonitrile at 40° C.
Text: as §1, §2, §3, §4

[3] = Reversed-phase liquid chromatography retention factor (log k) on octyl bonded phase; conditions: C8 column; for log k in 80% CH3CN, C8: aqueous 80% acetonitrile at 40° C.
Text: as §1, §2, §3, §4

[4] = Reversed-phase liquid chromatography retention factor (log k) on propyl-phenyl bonded phase; conditions: C3Ph column; for log k in 80% CH3CN, C3Ph: aqueous 80% acetonitrile at 40° C.
Text: as §1, §2, §3, §4

[5] = Reversed-phase liquid chromatography retention factor (log k) on pentyl bonded phase; conditions: C5 column; for log k in 80% CH3CN, C5: aqueous 80% acetonitrile at 40° C.
Text: as §1, §2, §3, §4

log k in 80% CH3CN, C5 [5]	log k in 80% CH3CN, C6Ph [1]	log k in 80% CH3CN, C18 [2]	log k in 80% CH3CN, C8 [3]	log k in 80% CH3CN, C3Ph [4]	Compound	log k in 70% CH3CN, C6Ph [1]	log k in 70% CH3CN, C18 [2]	log k in 70% CH3CN, C8 [3]	log k in 70% CH3CN, C3Ph [4]	log k in 70% CH3CN, C5 [5]
					c1cc2c3c(cccc3c1)CC2 [Acenaphthene]	0.616	0.814	0.629	0.447	
					C1=Cc2cccc3cccc1c23 [Acenaphthylene]	0.521	0.663	0.540	0.364	0.450
					c1ccc2cc3ccccc3cc2c1 [Anthracene]	0.679	0.894	0.688	0.490	0.562
					c1ccccc1 [Benzene]	0.230	0.340	0.281	0.167	0.209
					c1ccc2cc3c(ccc4ccccc43)cc2c1 [Benzo(a)anthracene]	0.878	1.177	0.860	0.647	0.692
					c1ccc2c(c1)cc1ccc3cccc4ccc2c1c34 [Benzo(a)pyrene]	1.009	1.375	0.071	0.733	0.755
					c1ccc2c(c1)-c1cccc3c1c-2cc1ccccc13 [Benzo(b)fluoranthene]	0.970	1.325	0.943	0.714	0.741
					c1cc2ccc3ccc4ccc5cccc6c(c1)c2c3c4c56 [Benzo(g,h,i)perylene]	1.118		1.067	0.799	0.822
					c1ccc2cc3c(cc2c1)-c1cccc2cccc-3c12 [Benzo(k)fluoranthene]	0.982	1.347	0.959	0.726	0.741
					c1ccc2c(c1)ccc1c3ccccc3ccc21 [Chrysene]	0.869	1.160	0.842	0.635	0.673
1.139	0.941	1.697	1.324	0.748	CCCCCCCCCCc1ccccc1 [Decylbenzene]	1.313			1.146	1.400
					c1ccc2c(c1)ccc1cc3c(ccc4ccccc43)cc12 [Dibenzo(a,h)anthracene]	1.071	1.479	1.032	0.806	0.803
					c1ccc2c(c1)-c1cccc3cccc-2c13 [Fluoranthene]	0.746	0.989	0.747	0.535	0.599
					c1ccc2c(c1)Cc1ccccc1-2 [Fluorene]	0.602	0.794	0.629	0.436	0.527
0.794	0.667	1.188	0.937	0.512	CCCCCCCc1ccccc1 [Heptylbenzene]	0.985	1.491	1.181	0.851	1.019
0.679	0.572	1.021	0.806	0.430	CCCCCCc1ccccc1 [Hexylbenzene]	0.871	1.310	1.043	0.747	0.894
					c1ccc2c(c1)-c1ccc3ccc4cccc5cc-2c1c3c45 [Indeno(1,2,3 cd)pyrene]	1.102		1.067	0.803	0.822
					c1ccc2ccccc2c1 [Naphthalene]	0.470	0.582	0.486	0.305	0.410
1.022	0.849	1.528	1.193	0.668	CCCCCCCCCc1ccccc1 [Nonylbenzene]	1.204		1.457	1.046	1.271
0.906	0.757	1.356	1.063	0.589	CCCCCCCCc1ccccc1 [Octylbenzene]	1.095	1.673	1.318	0.947	1.144
0.567	0.480	0.858	0.680	0.350	CCCCCc1ccccc1 [Pentylbenzene]	0.758	1.134	0.908	0.646	0.772
					c1ccc2c(c1)ccc1ccccc12 [Phenanthrene]	0.655	0.854	0.660	0.468	0.538
0.362	0.303	0.548	0.442	0.196	CCCc1ccccc1 [Propylbenzene]	0.538	0.800	0.644	0.449	0.537
					c1cc2ccc3cccc4ccc(c1)c2c34 [Pyrene]	0.778	1.038	0.777	0.553	0.614

Compound	log k in 80% CH3CN, C5 [5]	log k in 80% CH3CN, C6Ph [1]	log k in 80% CH3CN, C18 [2]	log k in 80% CH3CN, C8 [3]	log k in 80% CH3CN, C3Ph [4]	log k in 70% CH3CN, C6Ph [1]	log k in 70% CH3CN, C18 [2]	log k in 70% CH3CN, C8 [3]	log k in 70% CH3CN, C3Ph [4]	log k in 70% CH3CN, C5 [5]
CCCCc1ccccc1 [Butylbenzene]	0.462	0.391	0.702	0.561	0.274	0.648	0.963	0.776	0.548	0.653
CCc1ccccc1 [Ethylbenzene]	0.258	0.215	0.394	0.324	0.121	0.428	0.628	0.513	0.348	0.417

Source: US20010054579A1, “METHOD OF SEPARATING DIFFERENT CHEMICALS IN A SAMPLE” (priority 1997, published 2001)
